We go through eight molecules from patent publication US6387395B1, “N-[1, (1-1) -dialkyloxy] - and N- [1, (1-1) -dialkenyloxy]- alk-1-yl-N,N,N-tetrasubstituted ammonium lipids and uses therefor” (priority 1985, dated 2002).

Data set [1] relates to Vero cells. Kind of data set: Protein synthesis ([3H]leucine) in cells treated with DOTMA liposomes / 2-5A analog. Type of data set: cell-based. As to conditions: 6 hours incubation, alone (no DOTMA); 2-5A analog at 10^−6 M. From the text:
Oligoadenylates of the general structure ppp(A2′p)nA, n≧2, are referred to as “2-5A”. 2-5A molecules are well known, to those skilled in the art, to bind to an intracellular endonuclease resulting in activation of the endonuclease with subsequent cleavage of ribosomal and messenger RNA, resulting in inhibition of protein synthesis. […] A calcium phosphate coprecipitation technique can be employed to artificially introduce 2-5A into cells, which can be monitored by inhibition of protein synthesis. […] The solutions were then removed by aspiration, the cells were labelled for 90 minutes with [^3H] leucine (1 μCi/0.5 ml/well), and the trichloroacetic acid (TCA)-precipitable radioactivity was determined after incubating 30 minutes with cold 10% TCA, washing, harvesting the cells with 0.1 M NaOH, neutralizing with HCl, and quantitating the radioactivity by liquid scintillation counting. […] However, the calcium phosphate treatment was very toxic to the cells, as determined from their morphology as well as approximately up to 40% reduction in protein synthesis of the cells receiving only the calcium phosphate treatment but no 2-5A.
Cells were incubated and protein synthesis was determined as described above except that the 60 mM CaCl2 was not included. […] In another test, cells were incubated with samples for 2, 6, or 18 hours and protein synthesis was determined as described above.

Data set [2] in a line: Solubility of drug in phosphate buffered saline. Type of data set: physicochemical. On the procedure:
For example, 1-[4-(4-chlorophenyl)-2-(2,6-dichlorophenylthio)-n-butyl] imidazole nitrate without the presence of any of the compounds of this invention is insoluble in aqueous buffer (phosphate buffered saline, pH 7.4).
A 0.3% soluble preparation of the above drug was prepared using the following method:
18 mg of 1-[4-(4-chlorophenyl)-2-(2,6-dichlorophenylthio)-n-butyl] imidazole nitrate and 482 mg of N-(2,3-di-(9-(Z)-octadecenyloxy)-prop-1-yl-N,N,N-trimethylammonium chloride were dissolved in methylene dichloride. The methylene dichloride was evaporated under a stream of nitrogen and the dried film placed under vacuum overnight. The dried film was suspended in 6 ml phosphate buffered saline, pH 7.4, and sonicated to clarity.

The subject of data set [3] is CV-1 cells. Kind of data set: Transient transfection with pSV2CAT, CAT activity. Type of data set: cell-based, monkey. As to conditions: CV-1 and COS 7 cells. On the procedure:
(§1) (a) Formation of the lipid-DNA complexBoth DNA and lipid are diluted to 1.5 ml each with HBS (150 mM NaCl, 20 mM Hepes pH 7.4) and then mixed. The DNA lipid complexes form immediately. A typical transfection would use 1 to 10 μg DNA and 100 μg of total lipid (DOTMA:PE, 1:1).
(§2) (b) Treatment of cells—Just confluent 100 mm tissue culture plates of cells are washed 2× with 5 ml of HBS and 3 ml of the DNA-lipid solution is added. The cells are incubated for 3-5 hours at 37° and then 10 ml of DMEM+10% fcs is added. After incubation for 16 hours at 37° the medium is replaced with 10 ml fresh medium and cells are harvested by scraping 2-3 days later. Cell extracts were prepared and CAT assays performed as previously described. For stable transfections 50% confluent cells were treated as above except that 2 days after transfection cells were passaged and grown in selective medium for either neomycin resistance (0.4 mg/ml G418) or E. coli XGPRT expression.
(§3) Cells were transfected with calcium phosphate precipitated DNA as described with the addition of a glycerol shock. Similarly cells were transfected with the DEAE-dextran method as described.
Cells transfected with the plasmid pSV2CAT express CAT enzyme activity that can be measured in cell extracts 2 days after transfection. […]

Data set [4] is described as follows: DNA-lipid complex formation on sucrose density gradient. Type of data set: physicochemical. Conditions: lipid mixed with DNA at a ratio of 5:1 (wt:wt), gentle mixing. An excerpt:
DNA interacts spontaneously with solutions of DOTMA to form lipid-DNA complexes. This complex formation is due presumably to ionic interactions between the positively charged group on the DOTMA molecule and the negatively charged phosphate groups on the DNA. Complex formation was examined using a sucrose density gradient (not shown). In the absence of lipid, DNA migrated to the bottom of the gradient while lipid, in the absence of DNA, floated at the top. When lipid was mixed with DNA at a ratio of 5:1 (wt:wt) all the DNA migrated with the lipid. The association of 100% of the DNA with DOTMA after gentle mixing contrasts with conventional liposome encapsulation procedures which usually entrap less than 10% of the DNA, require an additional purification step to remove unencapsulated DNA or involve potentially destructive conditions such as vigorous agitation or sonication.

Data set [5] relates to mouse L-cells. Kind of data set: DNA transfection of mouse L-cells. Type of data set: cell-based. On the procedure:
as §1
as §2, with “The cells are incubated for 3-5 hours at 37° and then 10 ml of DMEM+10% fcs is added.” left out

Data set [6] deals with JZ.1 cells. Kind of data set: Transient transfection with pSV2CAT, CAT activity. In kind it is cell-based, rat. On the procedure:
as §1, §2, §3

In data set [7] the test system is mouse L-cells. Kind of data set: Cytotoxicity of dsRNA introduced into cells (trypan blue viability). In kind it is cell-based. From the text:
Interferon treatment of various cells including both mouse and human cells results in induction of an enzyme, 2-5A synthetase, which when activated by double stranded RNA produces 2-5A. 2-5A is a polymer of ATP that contains unique 2′-5′ linkages rather than the standard 3′-5′ linkages. 2-5A is effectively a communication molecule which activates a latent 2′-5′ endonuclease resulting in degradation of cellular mRNA. […] In the presence of double stranded RNA, 2-5A is produced and can be produced in sufficient concentrations to degrade the majority of the cellular RNA, including ribosomal RNA, resulting in cell death. In this respect, this system can be used as cytotoxic assay to analyze the capacity of a compound to introduce double stranded RNA into the cytoplasm of a cell. The double stranded RNA commonly used is poly IC, a commercially available compound which is used experimentally and classically to induce interferon by methods well known to those familiar in the art. Poly IC will not penetrate cells and cause cytotoxic effects alone, but requires a vehicle to help carry it across the cell membrane. The most common agent used for this purpose is DEAE dextran in experimental cell culture systems and a complex of carboxymethyl cellulose and polylysine in clinical use. […]

Data set [8] deals with L-TK cells. Kind of data set: Stable transfection frequency (drug resistant colonies). In kind it is cell-based, murine. Conditions: pSV2neo 1 μg with 10 μg carrier DNA. On the procedure:
(§4) (b) Treatment of cells—Just confluent 100 mm tissue culture plates of cells are washed 2× with 5 ml of HBS and 3 ml of the DNA-lipid solution is added. The cells are incubated for 3-5 hours at 37° and then 10 ml of DMEM+10% fcs is added. After incubation for 16 hours at 37° the medium is replaced with 10 ml fresh medium and cells are harvested by scraping 2-3 days later. Cell extracts were prepared and CAT assays performed as previously described.
as §3

Data set [9] has as its system Ψ2 cells. Described as above. In kind it is cell-based, murine. On the procedure:
as §4, §3

The test system of data set [10] is TA1 cells. The data set is described as above. In kind it is cell-based, murine. On the procedure: as §4, §3
The test system of data set [11] is Vero or L929 cells. Kind of data set: Inhibition of protein synthesis ([3H]leucine) by 2-5A, calcium phosphate coprecipitation. Type of data set: cell-based. From the text:
Oligoadenylates of the general structure ppp(A2′p)nA, n≧2, are referred to as “2-5A”. 2-5A molecules are well known, to those skilled in the art, to bind to an intracellular endonuclease resulting in activation of the endonuclease with subsequent cleavage of ribosomal and messenger RNA, resulting in inhibition of protein synthesis. […] A calcium phosphate coprecipitation technique can be employed to artificially introduce 2-5A into cells, which can be monitored by inhibition of protein synthesis. Thus 10^−5 to 10^−9 M 2-5A was added to a solution of 120 mM CaCl2, which was then added dropwise into bubbled Hepes buffered saline, pH 7.05 (8.0 g NaCl, 0.37 g KCl, 0.125 g Na2HPO4″2H2O, 1.0 g glucose, and 5.0 g Hepes per liter). A final sample volume of 0.5 ml was added to quadruplicate wells of Costar 24 well plates containing confluent Vero or L929 cells. After 45 minutes at room temperature, an additional 0.5 ml of media was added to each well and incubated an additional 90 minutes at 37° C. The solutions were then removed by aspiration, the cells were labelled for 90 minutes with [^3H] leucine (1 μCi/0.5 ml/well), and the trichloroacetic acid (TCA)-precipitable radioactivity was determined after incubating 30 minutes with cold 10% TCA, washing, harvesting the cells with 0.1 M NaOH, neutralizing with HCl, and quantitating the radioactivity by liquid scintillation counting. […] 50%-maximal inhibition occurred at approximately 10^−9 M 2-5A. However, the calcium phosphate treatment was very toxic to the cells, as determined from their morphology as well as approximately up to 40% reduction in protein synthesis of the cells receiving only the calcium phosphate treatment but no 2-5A.

The test system of data set [12] is MSN610.2 cells. Kind of data set: Stable transfection frequency (drug resistant colonies). In kind it is cell-based, rat. As to conditions: MSN610.2, pSV2neo 1 μg with 10 μg carrier DNA. On the procedure:
as §4, §3

pIC50: −log10 of the molar value.

Take “5′-triphosphophoryladenylyl-(2′→5′)adenylyl-(2′→5′)adenylyl-(2′→6′)(3′-aza-N-hexyl-1′,2′,3′,4′-tetradeo xyhexopyranos-1′-yl)adenine [2-5A analog]”: the “% of protein synthesis of untreated cells” value in data set [1] amounted to 82±14%.
As to `Clc1ccc(CCC(Cn2ccnc2)Sc2c(Cl)cccc2Cl)cc1.O=[N+]([O-])O` (stereo not shown) [1-[4-(4-chlorophenyl)-2-(2,6-dichlorophenylthio)-n-butyl] imidazole nitrate], the “soluble preparation of drug” value in [2] (18 mg drug with 482 mg DOTMA in 6 ml phosphate buffered saline pH 7.4, sonicated to clarity) stood at 0.3%. Besides, in data set [2] (phosphate buffered saline, pH 7.4, without compounds of the invention), the “solubility in aqueous buffer” value is on record as “insoluble”.
For `CCCCCCCC/C=C\CCCCCCCCOCC(C[N+](C)(C)C)OCCCCCCCC/C=C\CCCCCCCC.[Cl-]` (stereo not shown) [DOTMA, N-(2,3-di(9-(Z)-octadecenyloxy))-prop-1-yl-N,N,N-trimethylammonium chloride], the “fold increase in CAT activity relative to transient transfection with DEAE-dextran” value in [3] is on record as 6-11 fold. Besides, in data set [4], the “DNA associated with lipid” value was 100%. Further, in data set [5] (serum present from the outset), the “CAT activity (% of control)” value is on record as “less than 5%”. For the same molecule, in [6], the “fold enhancement over the DEAE-dextran procedure” value is on record as no less than 80 fold.
`CCCCCCCCCCCCCCCCCC[N+](C)(C)CCCCCCCCCCCCCCCCCC.[Br-]` [dioctadecyl dimethyl ammonium bromide]: the “efficacy as mediators of DNA transfection” value in data set [5] is listed as “little efficacy”.
In the case of `CCCCCCCCCCCCCCCCCCN` [stearylamine], the “efficacy as mediators of DNA transfection” value in [5] is “little efficacy”.
On to Poly IC, for which the “Cell Survival” value in [7] (1 million cells, 24 hrs treatment, trypan blue) turned out to be 100%. Moreover, the “frequency of surviving cells” value in data set [7] (poly IC introduced by the DOTMA lipid) is on record as 1×10^−6.
Regarding calcium phosphate, the “Frequency × 10^5” value in data set [8] worked out at 3; in data set [9] (Ψ2, pZIPC5a 7 μg), 1.8; in [9] (Ψ2, pZIPSVX 7 μg) it was 0.6; in data set [10] (TA1, pMSGC5a 7 μg), 1.3; in [10] (TA1, pSV2neo 1 μg with 10 μg carrier DNA) it was 2; in [10] (TA1, pZIPSVX 7 μg), 0.7. For the same molecule, the “Frequency × 10^5” value in data set [12] stood at 1.3. Besides, the “reduction in protein synthesis” value in [11] (calcium phosphate treatment only, no 2-5A) is on record as “up to 40%”. For the same molecule, in data set [1], the “% of protein synthesis of untreated cells” value was determined as 64±3%.
Consider ppp(A2′p)2A, for which the pIC50 in [11] (after the calcium-phosphate precipitation technique, read-out: 50%-maximal inhibition of protein synthesis) is roughly 9.00. For the same molecule, the “inhibition of protein synthesis” value in data set [11] (all concentrations, without calcium phosphate coprecipitation) is “no inhibition of protein synthesis”.
